Assay results taken from US20200199102A1, “COMPOUNDS THAT PARTICIPATE IN COOPERATIVE BINDING AND USES THEREOF” (Revolution Medicines, Inc., priority 2017, published 2020).
Where a SMILES comes first, the peptide text is derived from it. [ ]: non-standard residue; d: D form. MeBmt = C/C=C/C[C@@H](C)[C@@H](O)[C@H](NC)C(=O)O; NMeY = CN[C@@H](Cc1ccc(O)cc1)C(=O)O; NMeF = CN[C@@H](Cc1ccccc1)C(=O)O; NMeI = CC[C@H](C)[C@H](NC)C(=O)O; NMeT = CN[C@H](C(=O)O)[C@@H](C)O; NMeL = CN[C@@H](CC(C)C)C(=O)O; dNMeV = CN[C@@H](C(=O)O)C(C)C; NMeNva = CCC[C@H](NC)C(=O)O; NMeV = CN[C@H](C(=O)O)C(C)C; NMeA = CN[C@@H](C)C(=O)O; Abu = CC[C@H](N)C(=O)O; Sar = CNCC(=O)O

Target: T1, Cyclophilin A (Homo sapiens, UniProt P62937)
T1 construct: made in house
T1 sequence (P62937 whole entry, species assumed): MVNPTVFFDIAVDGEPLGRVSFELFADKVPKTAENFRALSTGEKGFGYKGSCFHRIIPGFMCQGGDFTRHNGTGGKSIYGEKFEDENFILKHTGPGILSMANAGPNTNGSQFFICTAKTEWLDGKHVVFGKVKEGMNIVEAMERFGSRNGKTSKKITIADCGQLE
Assay: AlphaLISA inhibition of binding of biotinylated Cyclosporin A to FLAG tagged Cyclophilin A
Conditions: for % signal: AlphaLISA signal; for % signal / % inhibition of CsA binding to Cyclophilin A: test concentration not given; for IC50: read-out: IC50 value of CsA binding to Cyclophilin A
Outline: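 Inhibition of biotin-CsA binding to FLAG-tagged Cyclophilin A read by AlphaLISA (ex 680, em 615 nm). Working stocks were 6 nM biotinylated CsA and 25 nM FLAG-CypA; beads and compound were combined first for 30 min, then protein added for 60 min, all at room temperature in the dark, with DMSO and cyclosporin A controls.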

| Structure (SMILES) | % signal | IC50 | % inhibition of CsA binding to Cyclophilin A |
| --- | --- | --- | --- |
| C/C=C/C[C@@H](C)[C@@H](O)[C@H]1C(=O)N[C@@H](CC)C(=O)N(C)CC(=O)N(C)[C@@H](CCC)C(=O)N[C@@H](C(C)C)C(=O)N(C)[C@@H](CC(C)C)C(=O)N[C@@H](CC(C)C)C(=O)N[C@H](C)C(=O)N(C)[C@@H](CC(C)C)C(=O)N(C)[C@@H](CC(C)C)C(=O)N(C)[C@@H](C(C)C)C(=O)N1C [Compound C54] (cyclo([MeBmt][Abu][Sar][NMeNva]V[NMeL]L[dA][NMeL][NMeL][NMeV])) | 0.90% | < 2000 nM | 99.10% |
| C/C=C/C[C@@H](C)[C@@H](O)[C@H]1C(=O)N[C@@H](CC)C(=O)N(C)CC(=O)N(C)[C@H](C(C)C)C(=O)N[C@@H](CC(C)C)C(=O)N(C)[C@@H](CC(C)C)C(=O)N[C@@H](CC(C)C)C(=O)N[C@H](C)C(=O)N(C)[C@@H](CC(C)C)C(=O)N(C)[C@@H](CC(C)C)C(=O)N(C)[C@@H](C(C)C)C(=O)N1C [Compound C67] (cyclo([MeBmt][Abu][Sar][dNMeV]L[NMeL]L[dA][NMeL][NMeL][NMeV])) | 40.86% | < 2000 nM | 59.14% |
| C/C=C/C[C@@H](C)[C@@H](O)[C@H]1C(=O)N[C@@H](CC)C(=O)N(C)CC(=O)N(C)[C@@H](CCCC)C(=O)N[C@@H](C(C)C)C(=O)N(C)[C@@H](CC(C)C)C(=O)N[C@@H](CC)C(=O)N[C@H](C)C(=O)N(C)[C@@H](CC(C)C)C(=O)N(C)[C@@H](CC(C)C)C(=O)N(C)[C@@H](C(C)C)C(=O)N1C [Compound C104] | 0.99% | < 2000 nM | 99.01% |
| C/C=C/C[C@@H](C)[C@@H](O)[C@H]1C(=O)N[C@@H](CC)C(=O)N(C)CC(=O)N(C)[C@@H](C)C(=O)N[C@@H](C(C)C)C(=O)N(C)[C@@H](C)C(=O)N[C@@H](C)C(=O)N[C@H](C)C(=O)N(C)[C@@H](CC(C)C)C(=O)N(C)[C@@H](CC(C)C)C(=O)N(C)[C@@H](C(C)C)C(=O)N1C [Compound C2] (cyclo([MeBmt][Abu][Sar][NMeA]V[NMeA]A[dA][NMeL][NMeL][NMeV])) | 5.25% | < 2000 nM | 94.75% |
| C/C=C/C[C@@H](C)[C@@H](O)[C@H]1C(=O)N[C@@H](CC)C(=O)N(C)CC(=O)N(C)[C@@H](CCCC)C(=O)N[C@@H](C(C)C)C(=O)N(C)[C@@H](CC(C)C)C(=O)N[C@@H](CC(C)C)C(=O)N[C@H](C)C(=O)N(C)[C@@H](CC(C)C)C(=O)N(C)[C@@H](CC(C)C)C(=O)N(C)[C@@H](C(C)C)C(=O)N1C [Compound C56] | 2.44% | < 2000 nM | 97.56% |
| C/C=C/C[C@@H](C)[C@@H](O)[C@H]1C(=O)N[C@@H](CC)C(=O)N(C)CC(=O)N(C)[C@@H](CCC)C(=O)N[C@@H](C(C)C)C(=O)N(C)[C@@H](C)C(=O)N[C@@H](CC(C)C)C(=O)N[C@H](C)C(=O)N(C)[C@@H](CC(C)C)C(=O)N(C)[C@@H](CC(C)C)C(=O)N(C)[C@@H](C(C)C)C(=O)N1C [Compound C90] (cyclo([Abu][Sar][NMeNva]V[NMeA]L[dA][NMeL][NMeL][NMeV][MeBmt])) | 6.46% | < 2000 nM | 93.54% |
| C/C=C/C[C@@H](C)[C@@H](O)[C@H]1C(=O)N[C@@H](CC)C(=O)N(C)CC(=O)N(C)[C@@H]([C@@H](C)CC)C(=O)N[C@@H](C(C)C)C(=O)N(C)CC(=O)N[C@@H](C)C(=O)N[C@H](C)C(=O)N(C)[C@@H](CC(C)C)C(=O)N(C)[C@@H](CC(C)C)C(=O)N(C)[C@@H](C(C)C)C(=O)N1C [Compound C25] (cyclo([MeBmt][Abu][Sar][NMeI]V[Sar]A[dA][NMeL][NMeL][NMeV])) | 0.37% | < 2000 nM | – |
| C/C=C/C[C@@H](C)[C@@H](O)[C@H]1C(=O)N[C@@H](CC)C(=O)N(C)CC(=O)N(C)[C@@H](Cc2ccccc2)C(=O)N[C@@H](C(C)C)C(=O)N(C)[C@@H](C)C(=O)N[C@@H](C)C(=O)N[C@H](C)C(=O)N(C)[C@@H](CC(C)C)C(=O)N(C)[C@@H](CC(C)C)C(=O)N(C)[C@@H](C(C)C)C(=O)N1C [Compound C4] (cyclo([MeBmt][Abu][Sar][NMeF]V[NMeA]A[dA][NMeL][NMeL][NMeV])) | 4.12% | < 2000 nM | 95.88% |
| C/C=C/C[C@@H](C)[C@@H](O)[C@H]1C(=O)N[C@@H](CC)C(=O)N(C)CC(=O)N(C)[C@@H](C)C(=O)N[C@@H](C(C)C)C(=O)N(C)[C@@H](CC(C)C)C(=O)N[C@@H](CC(C)C)C(=O)N[C@H](C)C(=O)N(C)[C@@H](CC(C)C)C(=O)N(C)[C@@H](CC(C)C)C(=O)N(C)[C@@H](C(C)C)C(=O)N1C [Compound C46] (cyclo([MeBmt][Abu][Sar][NMeA]V[NMeL]L[dA][NMeL][NMeL][NMeV])) | 1.04% | < 2000 nM | 98.96% |
| C/C=C/C[C@@H](C)[C@@H](O)[C@H]1C(=O)N[C@@H](CC)C(=O)N(C)CC(=O)N(C)[C@@H]([C@@H](C)O)C(=O)N[C@@H](CC(C)C)C(=O)N(C)[C@@H](C)C(=O)N[C@@H](C)C(=O)N[C@H](C)C(=O)N(C)[C@@H](CC(C)C)C(=O)N(C)[C@@H](CC(C)C)C(=O)N(C)[C@@H](C(C)C)C(=O)N1C [Compound C15] (cyclo([MeBmt][Abu][Sar][NMeT]L[NMeA]A[dA][NMeL][NMeL][NMeV])) | 2.93% | < 2000 nM | 97.07% |
| C/C=C/C[C@@H](C)[C@@H](O)[C@H]1C(=O)N[C@@H](CC)C(=O)N(C)CC(=O)N(C)[C@H](C(C)C)C(=O)N[C@@H](C(C)C)C(=O)N(C)[C@@H](CC(C)C)C(=O)N[C@@H](CC)C(=O)N[C@H](C)C(=O)N(C)[C@@H](CC(C)C)C(=O)N(C)[C@@H](CC(C)C)C(=O)N(C)[C@@H](C(C)C)C(=O)N1C [Compound C103] (cyclo([Abu][Sar][dNMeV]V[NMeL][Abu][dA][NMeL][NMeL][NMeV][MeBmt])) | 13.65% | < 2000 nM | 86.35% |
| C/C=C/C[C@@H](C)[C@@H](O)[C@H]1C(=O)N[C@@H](CC)C(=O)N(C)CC(=O)N(C)CC(=O)N[C@@H](C(C)C)C(=O)N(C)[C@@H](C)C(=O)N[C@@H](C)C(=O)N[C@H](C)C(=O)N(C)[C@@H](CC(C)C)C(=O)N(C)[C@@H](CC(C)C)C(=O)N(C)[C@@H](C(C)C)C(=O)N1C [Compound C5] (cyclo([MeBmt][Abu][Sar][Sar]V[NMeA]A[dA][NMeL][NMeL][NMeV])) | 9.09% | < 2000 nM | 90.91% |
| C/C=C/C[C@@H](C)[C@@H](O)[C@H]1C(=O)N[C@@H](CC)C(=O)N(C)CC(=O)N(C)[C@@H](Cc2ccc(O)cc2)C(=O)N[C@@H](C(C)C)C(=O)N(C)[C@@H](C)C(=O)N[C@@H](CC(C)C)C(=O)N[C@H](C)C(=O)N(C)[C@@H](CC(C)C)C(=O)N(C)[C@@H](CC(C)C)C(=O)N(C)[C@@H](C(C)C)C(=O)N1C [Compound C88] (cyclo([MeBmt][Abu][Sar][NMeY]V[NMeA]L[dA][NMeL][NMeL][NMeV])) | 5.94% | < 2000 nM | 94.06% |
